From US7999006B2, “Methods of using MEK inhibitors” (Exelixis, Inc., priority 2006, dated 2011)

System: WM-266-4 xenograft tumors
Assay: WM-266-4 human melanoma xenograft model
Format: in vivo
Details: WM-266-4 xenograft tumors in female nude mice, staged at 112±6 mg; MEK compound 10 mg/kg PO qd x 14 (AM); rapamycin 5 mg/kg IP qd x 14 (PM); single agents or combination
Description: For subcutaneous or intradermal tumors, the mean tumor weight of each animal in the respective control and treatment groups was determined twice weekly during the study. Tumor weight (TW) was determined by measuring perpendicular diameters with a caliper, using the following formula: tumor weight (mg)=[tumor volume=length (mm)×width^2 (mm^2)]/2.
Percent inhibition of tumor growth (TGI) is determined with the following formula:
[formula] where X0=average TW of all tumors on group day; Xf=TW of treated group on Day f; Yf=TW of vehicle control group on Day f
[formula] TGI is calculated individually for each tumor to obtain a mean±SEM value for each experimental group. Statistical significance is determined using the 2-tailed Student's t-test (significance defined as P<0.05).
The WM-266-4 human melanoma cell line is PTEN-deficient, and harbors a heterozygous activating mutation in the gene encoding B-Raf. Therefore, the ability of a MEK inhibitor administered as monotherapy, and in combination with the mTOR inhibitor rapamycin, was examined to inhibit the growth of WM-266-4 xenograft tumors in nude mice.
Tumors were established in female nude mice and staged when the tumors reached 112±6 mg. […]

SMILES: CO[C@H]1C[C@@H]2CC[C@@H](C)[C@@](O)(O2)C(=O)C(=O)N2CCCC[C@H]2C(=O)O[C@H]([C@H](C)C[C@@H]2CC[C@@H](O)[C@H](OC)C2)CC(=O)[C@H](C)/C=C(\C)[C@@H](O)[C@@H](OC)C(=O)[C@H](C)C[C@H](C)/C=C/C=C/C=C/1C [Rapamycin, rapamycin]
- TGI (%), tumor growth inhibition: 60%
